This passage reports Ki results from ChEMBL document CHEMBL1140373, “Azepanone-based inhibitors of human cathepsin L” (J Med Chem, 2005).

One assay concerns the target Cathepsin B (Homo sapiens, UniProt P07858). Briefly: Apparent inhibitory constant against human cathepsin B. As to conditions: read-out: Ki app.
The next assay deals with T1, Cathepsin K (Homo sapiens, UniProt P43235).
T1 sequence (P43235 whole entry): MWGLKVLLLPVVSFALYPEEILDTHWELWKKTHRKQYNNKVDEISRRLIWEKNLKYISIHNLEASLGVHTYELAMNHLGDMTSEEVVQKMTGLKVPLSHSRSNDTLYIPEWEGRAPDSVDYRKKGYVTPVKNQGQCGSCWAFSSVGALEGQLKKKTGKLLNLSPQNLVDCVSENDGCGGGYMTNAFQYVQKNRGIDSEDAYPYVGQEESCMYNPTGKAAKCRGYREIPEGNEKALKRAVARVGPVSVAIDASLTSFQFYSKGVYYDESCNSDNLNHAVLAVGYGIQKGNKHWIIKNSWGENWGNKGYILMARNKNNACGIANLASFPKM
The assay is described as follows: Apparent inhibitory constant against human cathepsin K. The conditions noted are these: read-out: Ki app.

The target in another assay is Procathepsin L (Homo sapiens, UniProt P07711). The assay is described as follows: Apparent inhibitory constant against human cathepsin L. The conditions noted are these: read-out: Ki app.
The target of another assay is Cathepsin S (Homo sapiens, UniProt P25774).

pKi: −log10 of the molar value. Residues, ends and D or L forms follow the SMILES beside them. *: point of attachment. Cbz = O=C(OCc1ccccc1)* Where only a bound is given, the exact number is not on record here.

Procathepsin L, sequence (P07711 whole entry): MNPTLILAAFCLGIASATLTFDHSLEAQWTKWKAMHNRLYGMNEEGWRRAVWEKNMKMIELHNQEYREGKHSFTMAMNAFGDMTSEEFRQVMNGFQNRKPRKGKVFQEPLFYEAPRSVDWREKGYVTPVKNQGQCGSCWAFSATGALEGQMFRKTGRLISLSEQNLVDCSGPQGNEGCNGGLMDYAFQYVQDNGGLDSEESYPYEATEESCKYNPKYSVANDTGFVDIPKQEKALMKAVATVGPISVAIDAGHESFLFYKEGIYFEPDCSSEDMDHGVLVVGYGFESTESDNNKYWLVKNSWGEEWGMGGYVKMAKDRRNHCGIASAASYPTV
Cathepsin S, sequence (P25774 whole entry): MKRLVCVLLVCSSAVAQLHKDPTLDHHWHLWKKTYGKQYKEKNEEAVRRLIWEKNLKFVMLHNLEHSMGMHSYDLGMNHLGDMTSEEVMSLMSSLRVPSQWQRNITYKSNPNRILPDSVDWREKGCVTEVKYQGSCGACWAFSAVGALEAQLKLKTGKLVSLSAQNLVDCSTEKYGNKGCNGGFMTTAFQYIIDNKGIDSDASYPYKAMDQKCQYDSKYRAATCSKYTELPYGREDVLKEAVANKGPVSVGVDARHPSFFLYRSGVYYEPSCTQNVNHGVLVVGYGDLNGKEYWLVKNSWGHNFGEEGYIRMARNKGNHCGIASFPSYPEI
Description for Cathepsin S: Apparent inhibitory constant against human cathepsin S

Regarding `O=C(N[C@@H](Cc1ccc2ccccc2c1)C(=O)N[C@H]1CCCN(S(=O)(=O)c2ccccn2)CC1=O)c1cccc2ccccc12`, the pKi was 6.82 at Cathepsin B, below 5.00 on Cathepsin K, 9.37 on Procathepsin L and 7.81 on Cathepsin S.

Consider `O=C(N[C@@H](Cc1ccc2ccccc2c1)C(=O)N[C@H]1CCCN(S(=O)(=O)c2ccccn2)CC1=O)c1cc2ccccc2o1`, for which the pKi on Cathepsin B was 7.62; on Cathepsin K, 6.53; on Procathepsin L, 9.24; on Cathepsin S, 8.51.

For the compound `CC(C)C[C@H](NC(=O)c1cccc2cccnc12)C(=O)N[C@H]1CCCN(S(=O)(=O)c2ccccn2)CC1=O`, the pKi was below 6.00 at Cathepsin B, 7.28 on Cathepsin K, 8.09 on Procathepsin L and 7.39 at Cathepsin S.

On to `CC(C)C[C@H](NC(=O)c1cccc2ccccc12)C(=O)N[C@H]1CCCN(S(=O)(=O)c2ccccn2)CC1=O`, for which the negative-log Ki (pKi) is 7.92 on Cathepsin K, 8.85 at Procathepsin L and 8.24 on Cathepsin S.

On to `O=C(N[C@@H](Cc1ccccc1)C(=O)N[C@H]1CCCN(S(=O)(=O)c2ccccn2)CC1=O)c1cc2ccccc2o1`, for which the pKi was 6.71 at Cathepsin B, 7.98 on Cathepsin K, 8.77 on Procathepsin L and 8.05 on Cathepsin S.

With `CC(C)C[C@H](NC(=O)c1ccc2ccccc2n1)C(=O)N[C@H]1CCCN(S(=O)(=O)c2ccccn2)CC1=O`, the pKi at Cathepsin B is 6.13; at Cathepsin K it was 9.05; on Procathepsin L it was 8.30; at Cathepsin S, 7.57.

Regarding `O=C[C@H](Cc1ccc(O)cc1)NC(=O)[C@H](Cc1ccccc1)NC(=O)OCc1ccccc1` (Cbz-Phe-Tyr-aldehyde), the pKi was 9.13 on Cathepsin K, 9.33 at Procathepsin L and 9.59 at Cathepsin S.

Usually pKi stands for the negative decadic logarithm of the Ki, by convention in mol/L.
